{
  "source": "patent US20180092894A1",
  "about": "“TREATMENT OF EOSINOPHILIC INFLAMMATORY DISEASE” (Northwestern University, priority 2016, published 2018)",
  "format_in_all_cases": "cell-based, human",
  "key": {"[1]": {"tested_on": "IL-13-induced eotaxin-3 protein secretion in BEAS-2B cells", "assay": "IL-13-induced eotaxin-3 protein secretion in BEAS-2Bs (ELISA)", "settings": "for effect on IL-13-induced eotaxin-3 protein secretion: 2 h pretreatment (1-50 μM), IL-13 5 ng/ml 48 h", "procedure": "(§1) BEAS-2B, a human bronchial epithelial cell line transformed with a hybrid adenovirus 12-simian virus 40 was obtained from ATCC (CRL-9609, Manassas, Va.). Primary HNECs were collected by epithelial scraping of IT and NP and cultured. For cytokine (Peprotech, Rocky Hill, N.J.) stimulation, submerged cultured cells were treated with 1-100 ng/ml IL-13, 10 ng/ml IFN-γ, 100 ng/ml TNF or 50 ng/ml IL-17 for 6 h or 48 h. To study the effects of PPIs (Sigma-Aldrich, St Louis, Mo.) on cytokine-induced chemokines, cells were pretreated for 2 h with acid-activated omeprazole (0.1-50 μM) or other PPIs: lansoprazole, rabeprazole, pantoprazole, and esomeprazole (1-50 μM) prior to stimulation with 5 ng/ml IL-13. Additionally, SCH-28080 (1-50 μM; Sigma-Aldrich) was used with the same protocol. In experiments altering extracellular K^+ concentration ([K^+]e), modified Ringer's solution that contained different contents of K^+ (0-11.2 mM KCl, Table 4) was used as culture media. For mRNA stability assessment, actinomycin D (3 μg/ml, Sigma-Aldrich) was used and eotaxin-3 mRNA was measured using real-time PCR. Supernatants, whole cell lysates, and total RNAs were harvested for further analysis.\n(§2) Eotaxin-1, eotaxin-2, and eotaxin-3 protein concentrations in supernatants were determined with the appropriate ELISA kits."}, "[2]": {"tested_on": "IL-13-induced intracellular alkalinization in BEAS-2B cells (ngH,K-ATPase)", "assay": "Intracellular pH (pHi) imaging, pHrodo Green, IL-13-stimulated BEAS-2Bs", "settings": "up to 1 h after IL-13, spectrofluorometry", "procedure": "The pH-sensitive dye, pHrodo® Green AM intracellular pH indicator (Life Technologies) that increases its fluorescence with decreasing pHi was used (ref 39; incorporated by reference in its entirety). Cells cultured in glass bottom microwell dishes (MatTek, Ashland, Mass.) were pre-treated with omeprazole or vehicle prior to 6 h IL-13 stimulation. Then cells were incubated with dye (5 μM) with live cell imaging solution (Life Technologies) at 37° C. for 30 minutes per manufacturer's instructions. Spinning disk confocal microscopy for live cells imaging was performed with Andor XDi Revolution (Andor Technologies, Belfast, UK). Fluorescence intensity was measured in 150 cells using Image J software (National Institutes of Health, Bethesda, Md.). For kinetic experiments, fluorescence intensity of cells cultured in 96-well plates with omeprazole, SCH-28080 or matched vehicle was measured at various times before and after IL-13 stimulation up to 1 h using the SpectraMax® Gemini EM Microplate Spectrofluorometer (Molecular devices, Sunnyvale, Calif.) at 485/538 nm (excitation/emission)."}, "[3]": {"tested_on": "IFN-γ-induced CXCL-10 (IP-10)", "assay": "IFN-γ-induced CXCL10 (IP-10) mRNA expression in BEAS-2B cells", "settings": "PPI 5 μM 2 h, IFN-γ 10 ng/ml 6 h", "procedure": "(§3) FIG. 9. […] Cells were pretreated with various PPIs for 2 h and stimulated for 6 h with IFN-γ (10 ng/ml), TNF (100 ng/ml) or IL-17 (50 ng/ml). IFN-γ-induced CXCL10 (IP-10), TNF-α-induced eotaxin-1, and IL-17-induced CXCL1 mRNA expression levels in total RNA from cells were measured by using real-time PCR. Data represent means±SEM compared with vehicle-treated/cytokine-stimulated cells. O, omeprazole; L, lansoprazole; R, rabeprazole; P, pantoprazole; E, esomeprazole all at 5 μM\nas §1\n(§4) mRNA levels of eotaxin-1, eotaxin-2, eotaxin-3, CXCL1, CXCL10, ATP12A, and ATP4A in total RNAs isolated from cells were measured using quantitative real-time PCR. Western blots were performed to assess total signal transducer and activator of transcription 6 (STATE), phosphorylated-STAT6 (pSTAT6) and ATP12A protein in whole cell lysates (ref. 38; incorporated by reference in its entirety)."}, "TNF-α-induced eotaxin-1": {"tested_on": "TNF-α-induced eotaxin-1", "assay": "TNF-α-induced eotaxin-1 mRNA expression in BEAS-2B cells", "settings": "PPI 5 μM 2 h, TNF 100 ng/ml 6 h", "procedure": "as §3, §1, §4"}, "IL-17-induced CXCL-1": {"tested_on": "IL-17-induced CXCL-1", "assay": "IL-17-induced CXCL1 mRNA expression in BEAS-2B cells", "settings": "PPI 5 μM 2 h, IL-17 50 ng/ml 6 h", "procedure": "as §3, §1, §4"}, "[4]": {"tested_on": "IL-13-induced eotaxin-3 protein secretion in HNECs", "assay": "IL-13-induced eotaxin-3 protein secretion in HNECs (ELISA)", "procedure": "as §1, §2"}, "pSTAT6": {"tested_on": "pSTAT6", "assay": "IL-13-induced STAT6 phosphorylation in BEAS-2Bs (Western blot)", "procedure": "FIGS. 6A-6D. Effects of omeprazole on IL-13-induced STAT6 phosphorylation and eotaxin-3 mRNA stability. FIG. 6A, In IL-13-stimulated BEAS-2Bs with omeprazole or vehicle, pSTAT6 and total STAT6 protein expression were measured by using Western blots. FIG. 6B, Semi-quantitative densitometry data for A (Mean±SEM, n=3-6). FIG. 6C, Experimental protocol for eotaxin-3 mRNA stability assessment using real-time PCR. FIG. 6D, Relative eotaxin-3 mRNA expression levels following treatment with actinomycin D and/or omeprazole. mRNA levels of eotaxin-1, eotaxin-2, eotaxin-3, CXCL1, CXCL10, ATP12A, and ATP4A in total RNAs isolated from cells were measured using quantitative real-time PCR. Western blots were performed to assess total signal transducer and activator of transcription 6 (STATE), phosphorylated-STAT6 (pSTAT6) and ATP12A protein in whole cell lysates (ref. 38; incorporated by reference in its entirety)."}, "[5]": {"settings": "5 μM omeprazole, 2 h pretreatment, IL-13 48 h"}},
  "data": [
    {"compound": "Cc1nc2c(OCc3ccccc3)cccn2c1CC#N", "note": "[SCH-28080]", "values": [
      {"measurement": "effect on IL-13-induced eotaxin-3 protein secretion", "setting": "[1]", "result": "significantly inhibited"},
      {"measurement": "IL-13-induced intracellular alkalinization, kinetic studies", "setting": "[2]", "result": "blunted"}
    ]},
    {"compound": "COc1ccc2nc([S@@+]([O-])Cc3ncc(C)c(OC)c3C)[nH]c2c1", "note": "[esomeprazole, S-5-methoxy-2-{(4-methoxy-3,5 dimethylpyridin-2-yl)methylsufinyl]-3H-benzoimidazole]", "values": [
      {"measurement": "effect on IL-13-induced eotaxin-3 protein secretion", "setting": "[1]", "result": "dose-dependent inhibitory effects"},
      {"measurement": "IFN-γ-induced CXCL-10 (IP-10) mRNA expression", "setting": "[3]", "result": "did not inhibit"},
      {"measurement": "TNF-α-induced eotaxin-1 mRNA expression", "setting": "TNF-α-induced eotaxin-1", "result": "did not inhibit"},
      {"measurement": "IL-17-induced CXCL-1 mRNA expression", "setting": "IL-17-induced CXCL-1", "result": "did not inhibit"}
    ]},
    {"compound": "Cc1c(OCC(F)(F)F)ccnc1C[S+]([O-])c1nc2ccccc2[nH]1", "note": "(stereo not shown) [lansoprazole]", "values": [
      {"measurement": "effect on IL-13-induced eotaxin-3 protein secretion", "setting": "[1]", "result": "dose-dependent inhibitory effects"},
      {"measurement": "IFN-γ-induced CXCL-10 (IP-10) mRNA expression", "setting": "[3]", "result": "did not inhibit"},
      {"measurement": "TNF-α-induced eotaxin-1 mRNA expression", "setting": "TNF-α-induced eotaxin-1", "result": "did not inhibit"},
      {"measurement": "IL-17-induced CXCL-1 mRNA expression", "setting": "IL-17-induced CXCL-1", "result": "did not inhibit"}
    ]},
    {"compound": "COc1ccc2[nH]c([S+]([O-])Cc3ncc(C)c(OC)c3C)nc2c1", "note": "(stereo not shown) [omeprazole, 5- or 6-methoxy-2-{[(4-methoxy-3,5-dimethylpyridin-2-yl)methyl]sulfinyl}-1H-ben-zimidazole]", "values": [
      {"measurement": "lowest concentration significantly inhibiting IL-13-induced eotaxin-3 protein secretion", "setting": "[1]", "result": 5, "unit": "µM"},
      {"measurement": "IL-13-induced eotaxin-3 protein secretion was reduced", "setting": "[1]; [5]", "result": 57.9, "unit": "%"},
      {"measurement": "lowest concentration significantly inhibiting IL-13-induced eotaxin-3 protein secretion", "setting": "[4]", "result": 1, "unit": "µM"},
      {"measurement": "IL-13-induced eotaxin-3 protein secretion was reduced", "setting": "[4]; [5]", "result": 37.1, "unit": "%"},
      {"measurement": "IFN-γ-induced CXCL-10 (IP-10) mRNA expression", "setting": "[3]", "result": "did not inhibit"},
      {"measurement": "TNF-α-induced eotaxin-1 mRNA expression", "setting": "TNF-α-induced eotaxin-1", "result": "did not inhibit"},
      {"measurement": "IL-17-induced CXCL-1 mRNA expression", "setting": "IL-17-induced CXCL-1", "result": "did not inhibit"},
      {"measurement": "IL-13-induced pSTAT6", "setting": "pSTAT6", "result": "not significantly inhibited"}
    ]},
    {"compound": "COc1ccnc(C[S+]([O-])c2nc3ccc(OC(F)F)cc3[nH]2)c1OC", "note": "(stereo not shown) [pantoprazole]", "values": [
      {"measurement": "IFN-γ-induced CXCL-10 (IP-10) mRNA expression", "setting": "[3]", "result": "did not inhibit"},
      {"measurement": "TNF-α-induced eotaxin-1 mRNA expression", "setting": "TNF-α-induced eotaxin-1", "result": "did not inhibit"},
      {"measurement": "IL-17-induced CXCL-1 mRNA expression", "setting": "IL-17-induced CXCL-1", "result": "did not inhibit"}
    ]},
    {"compound": "COCCCOc1ccnc(C[S+]([O-])c2nc3ccccc3[nH]2)c1C", "note": "(stereo not shown) [rabeprazole, 2-([4-(3-methoxypropoxy)-3-methylpyridin-2-yl]methylsulfinyl)-1H-benzo(d)-imidazole]", "values": [
      {"measurement": "effect on IL-13-induced eotaxin-3 protein secretion", "setting": "[1]", "result": "dose-dependent inhibitory effects"},
      {"measurement": "IFN-γ-induced CXCL-10 (IP-10) mRNA expression", "setting": "[3]", "result": "did not inhibit"},
      {"measurement": "TNF-α-induced eotaxin-1 mRNA expression", "setting": "TNF-α-induced eotaxin-1", "result": "did not inhibit"},
      {"measurement": "IL-17-induced CXCL-1 mRNA expression", "setting": "IL-17-induced CXCL-1", "result": "did not inhibit"}
    ]}
  ]
}
